Data as given in patent publication US20240182445A1 (ONO PHARMACEUTICAL CO., LTD., priority 2019, published 2024).

Experiments:
human TREK-1 [1] = target: T1, human TREK-1 (Homo sapiens, UniProt O95069); assay: TREK-1 Thallium (Tl+) flux assay, Method 1; format: cell-based; settings: for IC50: TREK-1 Thallium (Tl+) flux assay; for inhibition at 30 µM: read-out: Tl^+ Assay % inhibition at 30 uM (Minus value indicates activation of TREK-1), CHO-K1 cells stably expressing human TREK-1, minus = activation
T1 construct: expressed in transfected cells
T1 sequence (O95069 1-426): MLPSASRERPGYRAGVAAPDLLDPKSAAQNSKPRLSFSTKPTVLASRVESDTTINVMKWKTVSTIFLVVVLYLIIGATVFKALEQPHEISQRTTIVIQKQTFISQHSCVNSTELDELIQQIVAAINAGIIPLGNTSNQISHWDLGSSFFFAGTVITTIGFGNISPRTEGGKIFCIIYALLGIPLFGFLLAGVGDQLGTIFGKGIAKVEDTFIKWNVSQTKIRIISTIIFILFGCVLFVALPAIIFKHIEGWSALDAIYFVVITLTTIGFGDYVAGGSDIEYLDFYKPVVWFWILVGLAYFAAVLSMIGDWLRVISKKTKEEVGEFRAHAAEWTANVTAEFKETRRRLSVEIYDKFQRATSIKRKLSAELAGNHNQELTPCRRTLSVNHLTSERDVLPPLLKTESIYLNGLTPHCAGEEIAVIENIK
Procedure, shortened: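 Readout: Thallos fluorescence ratio, taken 25 s post-thallium relative to the pre-thallium baseline average, then converted to % inhibition. Cells were CHO-K1 stably expressing human TREK-1, dye-loaded and exposed to test compound (vehicle 0.3% DMSO) for 10 min prior to thallium stimulation.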

human TREK-1 [2] = target: T1, human TREK-1; assay: TREK-1 Manual Patch Clamp (hMPC) assay; format: cell-based; settings: CHO-K1 cells stably expressing human TREK-1; whole-cell current at 0 mV
Protocol: The term “patch clamp technique” herein refers to the “gold standard” technique for evaluating TREK channel pharmacology. The detail method is described below.
CHO-K1 cells stably expressing human TREK-1 or HEK293 cells stably expressing human TREK-2 are plated on glass coverslips, and voltage clamped in the whole-cell configuration of the patch clamp technique. Cells were voltage clamped at a holding potential of −80 mV and the stepped to 0 mV for 500 msec. The voltage was subsequently ramped from −120 mV to +80 mV over a 500 msec duration. This step-ramp protocol was repeated every 10 sec. The bathing solution contained the following: 135 mM NaCl, 5 mM KCl, 2 mM CaCl2, 1 mM MgCl2, 5 mM D-Glucose, 10 mM HEPES, 10 mM sucrose (adjusted to pH 7.4 with NaOH, 300 mosmol/kg H2O). The pipette solution contained the following: 135 mM KCl, 2 mM MgCl2, 1 mM EGTA, 10 mM HEPES, 2 mM Na2ATP (adjusted to pH 7.35 with KOH, 285 mosmol/kg H2O). Test compounds were dissolved into the bathing solution. Experiments on TREK-2 were terminated with the addition of the control compound (tert-butyl (3-((4-(benzyloxy)-2-methylphenyl)carbamoyl)-4-chlorophenyl)carbamate) so that maximal inhibition could be determined. The effects of test compound on the currents were calculated at 0 mV using the following equations:
For CHO cells expressing TREK-1 channel: % inhibition=(1-post current/pre current)×100
The compounds shown in Table 2 were prepared in an analogous manner with the appropriate starting materials, and evaluated in our TREK-1 Manual Patch Clamp (hMPC) assay.

[3] = values without footnote *12 are Method 1

Row | Compound | IC50 (human TREK-1 [1]; [3]) [nM] | IC50 (human TREK-1 [2]) [nM] | inhibition at 30 µM (human TREK-1 [1]) [%] | IC50 (human TREK-1 [1]; no *^12 (Method 2) mark on these rows) [nM]
1 | CC(=O)N1CCC(n2ncc(Cl)c2C(=O)Nc2ncc(C#Cc3ccc(F)cc3)cc2C)[C@H](F)C1 (stereo in doubt) [Compound 10, 1-((3R,4R)-1-acetyl-3-fluoropiperidin-4-yl)-4-chloro-N-(5-((4-fluorophenyl)ethynyl)-3-methylpyridin-2-yl)-1H-pyrazole-5-carboxamide] | 110 | 60 | – | –
2 | Cc1cc(C#Cc2ccccc2)cnc1NC(=O)c1c(Cl)cnn1CC1COCCO1 (stereo not drawn) [Compound 1, 1-((1,4-dioxan-2-yl)methyl)-4-chloro-N-(3-methyl-5-(phenylethynyl)pyridin-2-yl)-1H-pyrazole-5-carboxamide] | 670 | 170 | – | –
3 | Cc1cc(C#Cc2ccccc2)cnc1NC(=O)c1c(Cl)cnn1CC1CCOCC1 [Compound 2, 4-chloro-N-(3-methyl-5-(phenylethynyl)pyridin-2-yl)-1-((tetrahydro-2H-pyran-4-yl)methyl)-1H-pyrazole-5-carboxamide] | 200 | 60 | – | –
4 | Cc1cc(C#Cc2ccccc2)cnc1NC(=O)c1c(Cl)cnn1[C@@H]1CCOC1 [Compound 3, (R)-4-chloro-N-(3-methyl-5-(phenylethynyl)pyridin-2-yl)-1-(tetrahydrofuran-3-yl)-1H-pyrazole-5-carboxamide] | 360 | 530 | – | –
5 | O=C(Nc1ncc(C#Cc2ccccc2)cc1F)c1c(Cl)cnn1C[C@H]1COCCO1 [Compound 4, (S)-1-((1,4-dioxan-2-yl)methyl)-4-chloro-N-(3-fluoro-5-(phenylethynyl)pyridin-2-yl)-1H-pyrazole-5-carboxamide] | 220 | 70 | – | –
6 | CC(=O)N1CCC(n2ncc(Cl)c2C(=O)Nc2ncc(C#Cc3ccccc3)cc2C)CC1 [Compound 5, 1-(1-acetylpiperidin-4-yl)-4-chloro-N-(3-methyl-5-(phenylethynyl)pyridin-2-yl)-1H-pyrazole-5-carboxamide] | 70 | 60 | – | –
7 | CC(=O)N1CCC(n2ncc(Cl)c2C(=O)Nc2ncc(C#Cc3ccccc3)cc2F)CC1 [Compound 6, 1-(1-acetylpiperidin-4-yl)-4-chloro-N-(3-fluoro-5-(phenylethynyl)pyridin-2-yl)-1H-pyrazole-5-carboxamide] | 70 | 70 | – | –
8 | CC(=O)N1CCC(n2ncc(Cl)c2C(=O)Nc2ncc(C#Cc3ccc(F)cc3)cc2F)CC1 [Compound 7, 1-(1-acetylpiperidin-4-yl)-4-chloro-N-(3-fluoro-5-((4-fluorophenyl)ethynyl)pyridin-2-yl)-1H-pyrazole-5-carboxamide] | 140 | 30 | – | –
9 | CC(=O)N1CCC(n2ncc(Cl)c2C(=O)Nc2ncc(C#Cc3ccc(F)cc3)cc2C)CC1 [Compound 8, 1-(1-acetylpiperidin-4-yl)-4-chloro-N-(5-((4-fluorophenyl)ethynyl)-3-methylpyridin-2-yl)-1H-pyrazole-5-carboxamide] | 200 | 90 | – | –
10 | Cc1cc(C#Cc2ccccc2)cnc1NC(=O)c1c(Cl)cnn1C1CCn2nccc2C1 (stereo not drawn) [Compound 9, 4-chloro-N-(3-methyl-5-(phenylethynyl)pyridin-2-yl)-1-(4,5,6,7-tetrahydropyrazolo[1,5-a]pyridin-5-yl)-1H-pyrazole-5-carboxamide] | 140 | 20 | – | –
11 | O=C(Nc1ncc(C#Cc2ccccc2)cc1F)c1c(Cl)cnn1C1CCN(C(=O)C2COCCO2)CC1 (stereo not drawn) [Compound 11, 1-(1-(1,4-dioxane-2-carbonyl)piperidin-4-yl)-4-chloro-N-(3-fluoro-5-(phenylethynyl)pyridin-2-yl)-1H-pyrazole-5-carboxamide] | 120 | 100 | – | –
12 | Cc1cc(C#Cc2ccccc2)cnc1NC(=O)c1nn(CC2CCOCC2)cc1Cl [Compound 444, 4-chloro-N-(3-methyl-5-(phenylethynyl)pyridin-2-yl)-1-((tetrahydro-2H-pyran-4-yl)methyl)-1H-pyrazole-3-carboxamide] | – | – | -116 | –
13 | CC(=O)N1CCC(CCn2cc(Cl)c(C(=O)Nc3ncc(C#Cc4ccccc4F)cc3C)n2)CC1 [Compound 445, 1-(2-(1-acetylpiperidin-4-yl)ethyl)-4-chloro-N-(5-((2-fluorophenyl)ethynyl)-3-methylpyridin-2-yl)-1H-pyrazole-3-carboxamide] | – | – | -115 | –
14 | Cc1cc(C#Cc2ccc(F)cc2)cnc1NC(=O)c1nn(CCC2CCN(C(=O)C(C)C)CC2)cc1Cl [Compound 446, 4-chloro-N-(5-((4-fluorophenyl)ethynyl)-3-methylpyridin-2-yl)-1-(2-(1-isobutyrylpiperidin-4-yl)ethyl)-1H-pyrazole-3-carboxamide] | – | – | -108 | –
15 | CC(=O)N1CCC(CCn2cc(Cl)c(C(=O)Nc3ncc(C#Cc4cccs4)cc3F)n2)CC1 [Compound 447, 1-(2-(1-acetylpiperidin-4-yl)ethyl)-4-chloro-N-(3-fluoro-5-(thiophen-2-ylethynyl)pyridin-2-yl)-1H-pyrazole-3-carboxamide] | – | – | -107 | –
16 | O=C(Nc1ncc(C#Cc2cccs2)cc1F)c1nn(CCC2CCN(C(=O)C3COCCO3)CC2)cc1Cl (stereo not drawn) [Compound 448, 1-(2-(1-(1,4-dioxane-2-carbonyl)piperidin-4-yl)ethyl)-4-chloro-N-(3-fluoro-5-(thiophen-2-ylethynyl)pyridin-2-yl)-1H-pyrazole-3-carboxamide] | – | – | -106 | –
17 | Cc1cc(C#Cc2ccccc2)cnc1NC(=O)c1nn(CC2COCCO2)cc1Cl (stereo not drawn) [Compound 449, 1-((1,4-dioxan-2-yl)methyl)-4-chloro-N-(3-methyl-5-(phenylethynyl)pyridin-2-yl)-1H-pyrazole-3-carboxamide] | – | – | -99 | –
18 | Cc1cc(C#Cc2cccc(F)c2)cnc1NC(=O)c1nn(CCC2CCN(C(=O)C3CC3)CC2)cc1Cl [Compound 450, 4-chloro-1-(2-(1-(cyclopropanecarbonyl)piperidin-4-yl)ethyl)-N-(5-((3-fluorophenyl)ethynyl)-3-methylpyridin-2-yl)-1H-pyrazole-3-carboxamide] | – | – | -94 | –
19 | Cc1cc(C#Cc2ccc(F)cc2)cnc1NC(=O)c1nn(CCC2CCN(C(=O)C3CC3)CC2)cc1Cl [Compound 451, 4-chloro-1-(2-(1-(cyclopropanecarbonyl)piperidin-4-yl)ethyl)-N-(5-((4-fluorophenyl)ethynyl)-3-methylpyridin-2-yl)-1H-pyrazole-3-carboxamide] | – | – | -79 | –
20 | O=C(Nc1ncc(C#Cc2cccs2)cc1F)c1nn(CCC2CCN(C(=O)C3CC3)CC2)cc1Cl [Compound 452, 4-chloro-1-(2-(1-(cyclopropanecarbonyl)piperidin-4-yl)ethyl)-N-(3-fluoro-5-(thiophen-2-ylethynyl)pyridin-2-yl)-1H-pyrazole-3-carboxamide] | – | – | -62 | –
21 | Cn1ncc2c1CC(n1cc(Cl)c(C(=O)Nc3ncc(C#Cc4ccccc4)cc3F)n1)CC2=O (stereo not drawn) [Compound 453, 4-chloro-N-(3-fluoro-5-(phenylethynyl)pyridin-2-yl)-1-(1-methyl-4-oxo-4,5,6,7-tetrahydro-1H-indazol-6-yl)-1H-pyrazole-3-carboxamide] | – | – | -56 | –
22 | tert-butyl 4-(4-chloro-5-((3-fluoro-5-(phenylethynyl)pyridin-2-yl)carbamoyl)-1H-pyrazol-1-yl)-2-methylpiperidine-1-caboxylate [Compound 324] | – | – | – | 640
